From patent publication US20070049564A1 (Wyeth, priority 2005, published 2007)

Assays:
Enterococcus spp. = assay: In vitro activity (MIC), strain groups; conditions: Enterococcus spp.
Experimental: (§1) Antimicrobial susceptibility testing. The in vitro activities of the antibiotics are determined by the broth microdilution method as recommended by the National Committee for Clinical Laboratory Standards (NCCLS) (1). Mueller-Hinton II broth (MHBII)(BBL Cockeysville, Md.) is the medium employed in the testing procedures. Microtiter plates containing serial dilutions of each antimicrobial agent are inoculated with each organism to yield the appropriate density (10^5 CFU/ml) in a 100 μl final volume. The plates are incubated for 18-22 hours at 35° C. in ambient air.
(§2) Presented in Tables I-XIII are representative compounds of Formula I which were evaluated against a panel of 40 selected gram-positive and gram-negative bacteria strains by pre-incubation in water, mouse serum or human serum. Representative compounds were first incubated in mouse serum for an hour prior to the in vitro testing against a panel of selected gram-positive and gram-negative bacteria strains. All compounds were also pre-incubated in water for an hour prior to testing as control. Representative compounds of Formula I were incubated in human serum prior to MIC determination.

[1] = tested on: E. coli, tet(A-D), efflux; assay: In vitro activity (MIC), strain groups; conditions: E. coli, tet(A-D), efflux; Mouse serum
Experimental: as §1
(§3) Representative compounds were first incubated in mouse serum for an hour prior to the in vitro testing against a panel of selected gram-positive and gram-negative bacteria strains. All compounds were also pre-incubated in water for an hour prior to testing as control. Representative compounds of Formula I were incubated in human serum prior to MIC determination.

Staph. aureus Smith [2] = assay: In vivo activity (oral, iv; ED50) against Staph. aureus Smith in mice; conditions: mice, Table 6
Experimental: Representative examples of compounds of Formula I were tested for the oral efficacy using S. aureus Smith in mice.

E. coli #311 = assay: In vivo activity (oral, iv; ED50) against E. coli in mice; conditions: mice, Table 7
Excerpt: . […] Smith and E. Coli #311 in mammals.
Results of the tests (MIC, oral and IV) are list in Table 7.

E. coli [3] = assay: In vitro activity (MIC) against E. coli (Table 7); type: cell-based
S. aureus, tet (M) = assay: In vitro activity (MIC), strain groups
Experimental: as §1, §3

Staph. aureus Smith [4] = assay: In vitro activity (MIC) against Staph. aureus Smith; type: cell-based; conditions: Table 6
Staph. = assay: Range of MIC for Staph. strains, including MRSA; conditions: including MRSA, Table 1
Streptococcus spp. = assay: In vitro activity (MIC), strain groups; conditions: Streptococcus spp.
Experimental: as §1, §2

E. coli [5] = assay: Range of MIC for E. coli strains; conditions: Water; Table 1
[6] = tested on: E. coli, tet (M,S,O) Tet (M); assay: In vitro activity (MIC), strain groups; conditions: E. coli, tet (M,S,O) Tet (M)
Experimental: as §1, §2

Substance: [({[(5aR,6aS,7S,10aS)-9-(aminocarbonyl)-4,7-bis(dimethylamino)-1,8,10a,11-tetrahydroxy-10,12-dioxo-5,5a,6,6a,7,10,10a,12-octahydrotetracen-2-yl]amino}carbonyl)oxy]methyl 4-tert-butylbenzoate [Example 87]
- In vitro activity (MIC) (Enterococcus spp.; Human serum): 0.25-8
- In vitro activity (MIC) (Enterococcus spp.; Mouse serum): 0.12-0.5
- In vitro activity (MIC) (Enterococcus spp.; water): 0.25-32
- In vitro activity (MIC) [1]: 0.25-0.5
- ED50 SIV (Staph aureus Smith) (Staph. aureus Smith [2]; single intravenous dose): 0.83 mg/kg
- ED50 SOD (Staph aureus Smith) (Staph. aureus Smith [2]; single oral dose): 12.82 mg/kg
- ED50 SIV (E. coli) (E. coli #311; single intravenous dose): 3.6 mg/kg
- ED50 SOD (E. coli) (E. coli #311; single oral dose): 60.4 mg/kg
- MIC (E. coli) (E. coli [3]): >64 µg/mL
- In vitro activity (MIC) (S. aureus, tet (M); Human serum): 16
- In vitro activity (MIC) (S. aureus, tet (M); Mouse serum): 0.5
- In vitro activity (MIC) (S. aureus, tet (M); water): 64
- MIC (Staph aureus Smith) (Staph. aureus Smith [4]): 32 µg/mL
- Range of MIC, Staph (Mouse Serum) (Staph.; Mouse Serum): 32 to 64 µg/mL
- Range of MIC, Staph (Water) (Staph.; Water): >64 µg/mL
- In vitro activity (MIC) (Streptococcus spp.; Human serum): 1-2
- In vitro activity (MIC) (Streptococcus spp.; water): 0.5-2
- Range of MIC, E. coli (Water) (E. coli [5]): >64 µg/mL
- In vitro activity (MIC) ([6]; Human serum): >64
- In vitro activity (MIC) ([6]; Mouse serum): 0.25-0.5
- In vitro activity (MIC) ([6]; water): >64
